Tests used:
[1] = biological target: Casein kinase II subunit alpha' (Homo sapiens) (UniProt P19784); assay: Residual activity of CK2alpha2 at 0.1 uM by microplate scintillation counting
[2] = biological target: T1, Eukaryotic translation initiation factor 2-alpha kinase 3 (Homo sapiens) (UniProt Q9NZJ5); assay: Residual activity of EIF2AK3 at 1 uM by microplate scintillation counting
T1 sequence (whole entry): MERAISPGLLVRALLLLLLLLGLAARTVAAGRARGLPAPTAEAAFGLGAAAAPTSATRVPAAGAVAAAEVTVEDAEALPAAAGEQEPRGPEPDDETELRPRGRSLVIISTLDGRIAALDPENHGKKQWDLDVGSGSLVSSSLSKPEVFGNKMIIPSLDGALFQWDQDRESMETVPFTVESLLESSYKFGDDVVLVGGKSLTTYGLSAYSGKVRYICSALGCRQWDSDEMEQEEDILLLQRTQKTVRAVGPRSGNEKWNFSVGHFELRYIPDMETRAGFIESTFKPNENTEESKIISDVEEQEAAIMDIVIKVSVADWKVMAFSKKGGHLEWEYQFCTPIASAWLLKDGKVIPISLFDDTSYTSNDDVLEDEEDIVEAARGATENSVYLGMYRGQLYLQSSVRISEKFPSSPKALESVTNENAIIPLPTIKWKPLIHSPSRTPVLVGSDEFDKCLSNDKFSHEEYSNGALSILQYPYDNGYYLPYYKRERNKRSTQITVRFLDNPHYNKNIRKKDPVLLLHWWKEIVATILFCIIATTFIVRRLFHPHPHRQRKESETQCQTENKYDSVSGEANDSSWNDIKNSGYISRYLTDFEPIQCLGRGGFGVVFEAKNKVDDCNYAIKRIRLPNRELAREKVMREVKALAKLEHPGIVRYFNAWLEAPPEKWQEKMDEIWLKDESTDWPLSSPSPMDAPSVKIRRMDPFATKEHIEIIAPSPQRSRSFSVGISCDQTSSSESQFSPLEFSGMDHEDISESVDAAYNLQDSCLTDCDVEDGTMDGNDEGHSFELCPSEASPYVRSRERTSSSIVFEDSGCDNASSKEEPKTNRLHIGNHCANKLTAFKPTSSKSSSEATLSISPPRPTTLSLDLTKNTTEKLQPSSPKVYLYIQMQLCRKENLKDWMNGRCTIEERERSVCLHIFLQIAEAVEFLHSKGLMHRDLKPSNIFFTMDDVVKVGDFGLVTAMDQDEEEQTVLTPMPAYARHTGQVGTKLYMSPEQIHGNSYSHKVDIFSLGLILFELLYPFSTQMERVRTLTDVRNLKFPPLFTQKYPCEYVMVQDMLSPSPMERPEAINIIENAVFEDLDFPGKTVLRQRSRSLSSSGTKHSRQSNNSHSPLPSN

[3] = biological target: T2, Serine/threonine-protein kinase D1 (Homo sapiens) (UniProt Q15139); assay: Residual activity of PKCmu at 10 uM by microplate scintillation counting
T2 sequence (whole entry): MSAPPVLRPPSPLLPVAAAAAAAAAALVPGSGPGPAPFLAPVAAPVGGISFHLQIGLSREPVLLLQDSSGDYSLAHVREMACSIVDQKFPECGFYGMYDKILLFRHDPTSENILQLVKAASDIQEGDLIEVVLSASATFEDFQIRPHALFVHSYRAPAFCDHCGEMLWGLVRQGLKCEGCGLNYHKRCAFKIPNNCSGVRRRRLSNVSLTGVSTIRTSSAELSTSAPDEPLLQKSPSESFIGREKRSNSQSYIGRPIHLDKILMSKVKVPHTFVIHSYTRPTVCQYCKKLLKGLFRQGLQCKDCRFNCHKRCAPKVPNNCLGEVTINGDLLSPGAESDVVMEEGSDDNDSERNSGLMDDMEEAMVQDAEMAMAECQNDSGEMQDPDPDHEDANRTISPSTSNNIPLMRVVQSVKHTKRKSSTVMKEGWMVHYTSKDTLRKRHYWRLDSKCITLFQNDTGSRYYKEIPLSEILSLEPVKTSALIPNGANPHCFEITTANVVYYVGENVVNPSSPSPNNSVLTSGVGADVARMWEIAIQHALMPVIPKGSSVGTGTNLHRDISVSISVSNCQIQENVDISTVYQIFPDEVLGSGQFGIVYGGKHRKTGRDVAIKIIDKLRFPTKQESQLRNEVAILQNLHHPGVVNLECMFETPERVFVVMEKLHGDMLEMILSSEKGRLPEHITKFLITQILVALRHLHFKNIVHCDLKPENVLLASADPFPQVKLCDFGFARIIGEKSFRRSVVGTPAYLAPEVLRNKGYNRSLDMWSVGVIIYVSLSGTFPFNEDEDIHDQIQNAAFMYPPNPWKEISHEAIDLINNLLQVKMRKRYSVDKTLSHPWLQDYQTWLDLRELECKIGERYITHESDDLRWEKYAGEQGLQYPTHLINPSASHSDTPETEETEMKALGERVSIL

[4] = biological target: T3, Serine/threonine-protein kinase Sgk1 (Homo sapiens) (UniProt O00141); assay: Residual activity of SGK1 at 1 uM by microplate scintillation counting
T3 sequence (whole entry): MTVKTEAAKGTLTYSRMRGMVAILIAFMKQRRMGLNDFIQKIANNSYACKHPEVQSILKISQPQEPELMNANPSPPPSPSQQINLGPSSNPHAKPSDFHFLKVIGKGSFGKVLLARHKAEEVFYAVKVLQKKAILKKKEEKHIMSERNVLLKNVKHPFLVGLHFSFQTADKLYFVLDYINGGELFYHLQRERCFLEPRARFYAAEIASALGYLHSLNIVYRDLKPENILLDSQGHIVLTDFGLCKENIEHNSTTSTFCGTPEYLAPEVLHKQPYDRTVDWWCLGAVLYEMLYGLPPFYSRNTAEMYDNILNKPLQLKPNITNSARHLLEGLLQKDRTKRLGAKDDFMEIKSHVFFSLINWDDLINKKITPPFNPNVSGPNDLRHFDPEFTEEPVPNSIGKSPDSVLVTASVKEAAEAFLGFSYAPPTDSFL

[5] = biological target: Casein kinase II subunit alpha (Homo sapiens) (UniProt P68400); assay: Residual activity of CK2alpha1 at 10 uM by microplate scintillation counting
Casein kinase II subunit alpha (Homo sapiens), sequence (P68400 whole entry, looked up): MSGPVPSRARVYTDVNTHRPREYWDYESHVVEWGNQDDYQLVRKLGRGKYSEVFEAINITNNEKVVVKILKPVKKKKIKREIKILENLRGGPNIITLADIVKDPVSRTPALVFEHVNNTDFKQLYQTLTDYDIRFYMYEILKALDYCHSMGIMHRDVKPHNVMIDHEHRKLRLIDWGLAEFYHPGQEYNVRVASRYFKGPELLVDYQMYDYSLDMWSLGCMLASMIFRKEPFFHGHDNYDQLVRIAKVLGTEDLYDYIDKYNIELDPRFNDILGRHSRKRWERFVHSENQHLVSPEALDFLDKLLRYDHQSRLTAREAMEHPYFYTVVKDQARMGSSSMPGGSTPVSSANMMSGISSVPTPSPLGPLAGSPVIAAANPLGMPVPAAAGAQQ

[6] = biological target: Receptor tyrosine-protein kinase erbB-4 (Homo sapiens) (UniProt Q15303); assay: Residual activity of ERBB4 at 0.1 uM by microplate scintillation counting
Receptor tyrosine-protein kinase erbB-4 (Homo sapiens), sequence (Q15303 whole entry): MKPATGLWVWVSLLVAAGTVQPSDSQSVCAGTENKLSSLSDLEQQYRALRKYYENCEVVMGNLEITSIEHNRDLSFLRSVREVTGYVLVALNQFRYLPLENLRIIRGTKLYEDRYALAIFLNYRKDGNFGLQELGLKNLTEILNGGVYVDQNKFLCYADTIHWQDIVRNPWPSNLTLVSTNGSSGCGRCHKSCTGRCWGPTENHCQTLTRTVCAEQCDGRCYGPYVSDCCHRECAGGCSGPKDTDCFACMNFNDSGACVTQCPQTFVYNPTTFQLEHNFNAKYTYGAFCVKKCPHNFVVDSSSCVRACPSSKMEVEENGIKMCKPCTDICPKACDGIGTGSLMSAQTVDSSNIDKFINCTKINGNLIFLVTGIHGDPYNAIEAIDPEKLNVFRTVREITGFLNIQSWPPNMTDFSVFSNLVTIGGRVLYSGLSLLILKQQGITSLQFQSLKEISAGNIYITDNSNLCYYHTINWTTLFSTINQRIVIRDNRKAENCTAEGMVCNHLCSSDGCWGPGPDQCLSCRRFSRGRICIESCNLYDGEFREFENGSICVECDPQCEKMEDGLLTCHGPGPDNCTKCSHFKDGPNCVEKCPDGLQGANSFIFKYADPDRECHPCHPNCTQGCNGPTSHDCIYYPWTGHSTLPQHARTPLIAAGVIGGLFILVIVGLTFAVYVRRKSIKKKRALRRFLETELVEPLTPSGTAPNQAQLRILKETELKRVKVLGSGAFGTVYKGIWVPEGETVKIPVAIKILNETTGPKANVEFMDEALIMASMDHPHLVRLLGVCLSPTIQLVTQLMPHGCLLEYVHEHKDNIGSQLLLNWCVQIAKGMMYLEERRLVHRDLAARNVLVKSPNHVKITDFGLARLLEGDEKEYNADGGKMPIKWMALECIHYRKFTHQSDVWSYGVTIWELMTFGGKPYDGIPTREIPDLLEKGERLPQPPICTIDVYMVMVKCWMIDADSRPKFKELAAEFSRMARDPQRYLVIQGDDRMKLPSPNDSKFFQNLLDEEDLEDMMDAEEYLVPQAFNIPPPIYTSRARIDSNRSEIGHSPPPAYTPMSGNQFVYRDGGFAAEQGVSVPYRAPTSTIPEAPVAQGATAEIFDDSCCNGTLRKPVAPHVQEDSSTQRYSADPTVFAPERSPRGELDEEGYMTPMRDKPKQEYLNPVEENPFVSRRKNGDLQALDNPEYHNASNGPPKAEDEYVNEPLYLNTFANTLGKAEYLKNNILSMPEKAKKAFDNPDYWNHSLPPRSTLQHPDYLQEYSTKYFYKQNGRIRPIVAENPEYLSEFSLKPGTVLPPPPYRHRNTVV

[7] = biological target: T4, Aurora kinase C (Homo sapiens) (UniProt Q9UQB9); assay: Residual activity of Aurora-C at 0.1 uM by microplate scintillation counting
T4 sequence (whole entry): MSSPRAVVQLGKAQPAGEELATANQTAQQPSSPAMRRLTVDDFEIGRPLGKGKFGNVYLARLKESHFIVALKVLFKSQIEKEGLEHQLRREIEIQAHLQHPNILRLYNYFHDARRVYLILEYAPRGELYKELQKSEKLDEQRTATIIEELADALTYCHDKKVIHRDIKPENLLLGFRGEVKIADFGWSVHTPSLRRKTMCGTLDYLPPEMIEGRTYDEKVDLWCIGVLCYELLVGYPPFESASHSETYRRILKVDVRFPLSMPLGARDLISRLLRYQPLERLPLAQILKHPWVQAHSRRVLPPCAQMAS

Casein kinase II subunit alpha' (Homo sapiens), sequence (P19784 whole entry, looked up): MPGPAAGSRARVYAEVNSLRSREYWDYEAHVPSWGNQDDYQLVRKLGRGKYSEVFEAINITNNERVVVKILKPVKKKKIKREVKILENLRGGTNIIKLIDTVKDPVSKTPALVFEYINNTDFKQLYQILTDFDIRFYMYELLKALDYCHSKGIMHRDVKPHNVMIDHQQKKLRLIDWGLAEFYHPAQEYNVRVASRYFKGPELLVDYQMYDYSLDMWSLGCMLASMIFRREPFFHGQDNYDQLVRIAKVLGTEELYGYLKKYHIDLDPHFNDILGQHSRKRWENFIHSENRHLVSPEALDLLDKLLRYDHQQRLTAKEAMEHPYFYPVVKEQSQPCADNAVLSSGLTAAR

Row | SMILES | residual activity [1] | residual activity [2] | residual activity [3] | residual activity [4] | residual activity [5] | residual activity [6] | residual activity [7]
1 | COc1cc2c(Oc3ccc(-c4nc5ccccc5s4)cc3)ncnc2cc1OCCCN1CCN(C)CC1 | 98% | 100% | 122% | 86% | 229% | 87% | 42%
2 | COc1cc2c(Oc3ccc(-c4nc5ccccc5s4)cc3F)ncnc2cc1OCCCN1CCN(C)CC1 | 88% | 90% | 111% | 96% | 264% | 100% | 48%
3 | COc1cc2c(Oc3ccc(-c4nc5ccccc5s4)cc3)ncnc2cc1OCCCN1CCCC1 | 91% | 102% | 126% | 99% | 188% | 102% | 42%

From ChEMBL document CHEMBL1152560, “Substituted 2-arylbenzothiazoles as kinase inhibitors: hit-to-lead optimization” (Bioorg Med Chem, 2009)
